The results in this text go back to PMC8552062, “Contributions of UDP-Glucuronosyltransferases to Human Hepatic and Intestinal Metabolism of Ticagrelor and Inhibition of UGTs and Cytochrome P450 Enzymes by Ticagrelor and its Glucuronidated Metabolite” (Frontiers in Pharmacology, 2021).

Type in all cases: in vitro ADME
For data set [1], the system named is human liver microsomes (HLM). As to the kind of experiment: Ticagrelor glucuronidation kinetics in pooled HLM. The procedure: (§1) Ticagrelor glucuronidation was investigated in an in vitro incubation system by using HLM, HIM, and recombinant human UGTs. The incubation system consisted of enzyme sources (HLM, HIM, or human recombinant UGTs), various concentrations of ticagrelor (dissolved in 50% methanol, 1% v/v, 1, 2, 5, 10, 20, 50, 100, 200, 500 μM of final concentration), alamethicin (50 μg/mg protein), 5 mM MgCl2, 100 mM tris-HCL buffer (pH 7.4), and 5 mM UDPGA in a total volume of 100 μl. Alamethicin is a pore-forming polypeptide used to activate UGTs in HLM and HIM ([Fisher et al., 2000]). Preliminary studies were conducted to determine the optimal protein concentrations and incubation times. Linear conditions of ticagrelor-O-Glu formation from ticagrelor, i.e., HLM, 0.2 mg of protein/ml and 60 min, HIM, 0.2 mg of protein/ml and 60 min, and recombinant human UGTs, 0.2 mg of protein/ml and 60 min were selected. The incubation mixture without UDPGA was placed on ice for 15 min to activate UGT by alamethicin. After pre-incubation for 5 min at 37°C, the reactions were started by the addition of UDPGA. After another 60 min of incubation at 37°C, the reaction was terminated by adding 100 μl of acetonitrile containing internal standard (diazepam). The mixture vortexed for 2 min and then centrifuged at 14,000 rpm for 10 min at 4°C. The resulting supernatant was injected into a liquid chromatography tandem mass spectrometry (LC-MS/MS, Applied Biosystems/MDS Sciex, Foster City, CA) system for the detection of ticagrelor-O-Glu.
(§2) Kinetic analyses were performed using the mean values of triplicate determinations with either pooled HLM, HIM, or recombinant human UGTs. All data were analyzed by nonlinear regression analysis using the GraphPad Prism 6 (GraphPad Software Inc., CA, United States). Michaelis-Menten kinetics (Eq. 1) or substrate inhibition kinetics (Eq. 2) ([Houston and Kenworthy, 2000]) were tested to determine the optimal model for describing the data. […] Intrinsic clearance (CLint) was calculated by dividing Vmax by Km.

For data set [2], the system named is human intestinal microsomes (HIM). In words: Ticagrelor glucuronidation kinetics in pooled HIM. How it is done: as §1, §2
The next data set deals with T1, UGT1A9 (Homo sapiens, UniProt O60656).
T1 sequence (O60656 26-530): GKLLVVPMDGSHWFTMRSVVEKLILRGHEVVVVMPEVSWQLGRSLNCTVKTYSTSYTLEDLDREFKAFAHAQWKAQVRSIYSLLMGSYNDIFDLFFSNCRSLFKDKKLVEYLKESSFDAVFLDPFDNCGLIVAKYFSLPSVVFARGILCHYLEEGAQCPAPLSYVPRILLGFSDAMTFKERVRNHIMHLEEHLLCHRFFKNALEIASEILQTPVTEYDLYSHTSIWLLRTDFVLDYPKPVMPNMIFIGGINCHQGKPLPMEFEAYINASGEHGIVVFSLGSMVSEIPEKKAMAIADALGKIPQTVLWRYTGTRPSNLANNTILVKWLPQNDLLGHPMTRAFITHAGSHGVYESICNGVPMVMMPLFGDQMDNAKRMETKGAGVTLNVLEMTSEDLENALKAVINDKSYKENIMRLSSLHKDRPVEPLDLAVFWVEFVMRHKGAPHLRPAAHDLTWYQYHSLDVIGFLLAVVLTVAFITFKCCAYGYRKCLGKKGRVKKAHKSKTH
As to the kind of experiment: Ticagrelor glucuronidation by recombinant human UGT1A9. The note with it: recombinant human UGT1A9, pH 7.4. More on the design: purchased BD Gentest; host or cells: baculovirus-infected insect cells. The procedure: as §1, with “After pre-incubation for 5 min at 37°C, the reactions were started by the addition of UDPGA. After another 60 min of incubation at 37°C, the reaction was terminated by adding 100 μl of acetonitrile containing internal standard (diazepam). The mixture vortexed for 2 min and then centrifuged at 14,000 rpm for 10 min at 4°C. The resulting supernatant was injected into a liquid chromatography tandem mass spectrometry (LC-MS/MS, Applied Biosystems/MDS Sciex, Foster City, CA) system for the detection of ticagrelor-O-Glu.” left out
(§3) Kinetic analyses were performed using the mean values of triplicate determinations with either pooled HLM, HIM, or recombinant human UGTs. All data were analyzed by nonlinear regression analysis using the GraphPad Prism 6 (GraphPad Software Inc., CA, United States). […] Intrinsic clearance (CLint) was calculated by dividing Vmax by Km.

A further data set has as its target T2, UGT1A3 (Homo sapiens, UniProt P35503).
T2 sequence (P35503 29-534): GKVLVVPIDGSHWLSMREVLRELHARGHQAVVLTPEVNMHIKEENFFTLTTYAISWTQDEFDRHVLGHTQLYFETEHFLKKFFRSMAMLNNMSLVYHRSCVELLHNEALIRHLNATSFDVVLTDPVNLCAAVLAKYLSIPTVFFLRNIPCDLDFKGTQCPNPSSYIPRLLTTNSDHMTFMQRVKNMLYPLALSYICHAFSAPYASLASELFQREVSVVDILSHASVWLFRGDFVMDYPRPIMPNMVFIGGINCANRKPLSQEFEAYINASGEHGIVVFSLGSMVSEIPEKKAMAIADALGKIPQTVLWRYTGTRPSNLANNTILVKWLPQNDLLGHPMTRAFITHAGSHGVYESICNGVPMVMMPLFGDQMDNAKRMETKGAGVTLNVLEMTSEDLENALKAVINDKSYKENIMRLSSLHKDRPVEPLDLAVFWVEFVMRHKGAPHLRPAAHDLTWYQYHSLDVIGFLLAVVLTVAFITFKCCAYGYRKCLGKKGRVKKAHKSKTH
In words: Ticagrelor glucuronidation by recombinant human UGT1A3. The following applies: recombinant human UGT1A3, pH 7.4. Details: purchased BD Gentest; host or cells: baculovirus-infected insect cells. The procedure: as §1, with “After pre-incubation for 5 min at 37°C, the reactions were started by the addition of UDPGA. After another 60 min of incubation at 37°C, the reaction was terminated by adding 100 μl of acetonitrile containing internal standard (diazepam). The mixture vortexed for 2 min and then centrifuged at 14,000 rpm for 10 min at 4°C. The resulting supernatant was injected into a liquid chromatography tandem mass spectrometry (LC-MS/MS, Applied Biosystems/MDS Sciex, Foster City, CA) system for the detection of ticagrelor-O-Glu.” left out
as §3

The next data set has as its target T3, UGT2B7 (Homo sapiens, UniProt P16662).
T3 sequence (P16662 24-529): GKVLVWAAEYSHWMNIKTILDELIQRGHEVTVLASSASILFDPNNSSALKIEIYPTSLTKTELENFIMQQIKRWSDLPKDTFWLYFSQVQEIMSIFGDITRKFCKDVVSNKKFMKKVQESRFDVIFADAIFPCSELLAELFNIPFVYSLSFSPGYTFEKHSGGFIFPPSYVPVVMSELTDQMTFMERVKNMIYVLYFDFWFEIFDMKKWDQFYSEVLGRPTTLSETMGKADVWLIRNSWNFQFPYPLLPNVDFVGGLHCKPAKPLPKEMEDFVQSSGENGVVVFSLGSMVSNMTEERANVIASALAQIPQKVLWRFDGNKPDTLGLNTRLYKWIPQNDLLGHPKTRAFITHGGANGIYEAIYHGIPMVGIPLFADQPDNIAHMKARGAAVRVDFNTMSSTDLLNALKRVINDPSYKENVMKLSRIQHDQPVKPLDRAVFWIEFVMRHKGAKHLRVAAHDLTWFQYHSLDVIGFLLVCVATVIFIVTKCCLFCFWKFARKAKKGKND
As to the kind of experiment: Ticagrelor glucuronidation by recombinant human UGT2B7. Details: purchased BD Gentest; host or cells: baculovirus-infected insect cells. The following applies: recombinant human UGT2B7, pH 7.4. The procedure:
as §1, with “After pre-incubation for 5 min at 37°C, the reactions were started by the addition of UDPGA. After another 60 min of incubation at 37°C, the reaction was terminated by adding 100 μl of acetonitrile containing internal standard (diazepam). The mixture vortexed for 2 min and then centrifuged at 14,000 rpm for 10 min at 4°C. The resulting supernatant was injected into a liquid chromatography tandem mass spectrometry (LC-MS/MS, Applied Biosystems/MDS Sciex, Foster City, CA) system for the detection of ticagrelor-O-Glu.” left out
as §3

Where “and” joins values, the source holds several entries; their conditions need not be identical. Identical values can stand only once.

In the case of `CCCSc1nc(N[C@@H]2C[C@H]2c2ccc(F)c(F)c2)c2nnn([C@@H]3C[C@H](OCCO)[C@@H](O)[C@H]3O)c2n1` [Ticagrelor], the Ksi in data set [1] (pooled HLM) is 1,343 μM and 1,343.0 μM; in data set [2] (pooled HIM), 292.9 µM. Also, the Vmax in data set [1] (pooled HLM) was found to be 8.03 pmol·min^−1·mg protein^−1; in data set [2] (pooled HIM), 0.90 pmol·min^−1·mg protein^−1. The Michaelis-Menten constant (Km) (commonly the concentration of substrate that gives half-maximal velocity) came to 5.65 µM in data set [1] (pooled HLM 0.2 mg protein/ml, 60 min, substrate inhibition kinetics) and 2.52 µM in data set [2] (pooled HIM 0.2 mg protein/ml, 60 min, substrate inhibition kinetics). The microsomal CLint – broadly, the capacity of the preparation to metabolise the compound, expressed as a volume cleared per time – is 0.56 µL/min/mg at UGT1A9, 0.04 µL/min/mg at UGT1A3 and 0.02 µL/min/mg on UGT2B7.
